Holding throughout (set-up): species or system HIV
Assay [1] deals with T1, gp120SF162 (Human immunodeficiency virus type 1 group M subtype B, UniProt P19550). Nature of the assay: Example 6 screening for CD4 binding inhibition (SEC-HPLC with fluorescently-labelled CD4, and Biacore). The following applies: three rounds. From the text:
(§1) Additional candidate small molecules were screened for CD4 binding inhibition and upregulation of CD4 inducible epitopes, e.g., mABs 17b and 48D, by HPLC and BlAcore methods as described in Examples 1 and 4 above. Each of the compounds in Table 5 below was screened three times by both methods using different lots of both gp120 and antibodies. The rounds of screening tests were additionally carried out on different dates.
CD4 binding competition was examined in the free solution state by HPLC. Various candidate small molecules were each mixed with gp120SF162 and the resulting solution was incubated for 1 hour at 37° C. Fluorescently-labelled CD4, CD4 488, was then added to each incubated solution, and the resulting mixture was analyzed by size exclusion HPLC (SEC-HPLC), using fluorescent signal detection. The extent of competition with CD4 was determined as follows.

Assay [2] addresses gp120SF162 (17b epitope) (Human immunodeficiency virus type 1 group M subtype B, UniProt P19550). Description: SPR (Biacore) upregulation of monoclonal antibody 17b binding to Env/compound complex. The following applies: for upregulation of CD4 inducible epitopes on gp120: FIGS. 4B, 5B, antibody not stated in the legend. On the procedure:
(§2) In a second step, each of the 100 structurally identified compounds was screened for its ability to compete with CD4 binding to Env (gp120) as well as its ability to induce the desired conformational change in the HIV Env protein to expose inducible epitopes. Both binding competition and exposure of cryptic epitopes were analyzed using Biacore's SRP systems. (Biacore Inc., Piscataway, N.J.), following the manufacturer's instructions.
(§3) Surface plasmon resonance assays were performed using a BIACORE 3000 optical biosensor system (Biacore AB, Uppsala, Sweden) with simultaneous monitoring of relevant flow cells. To perform the kinetic study of the binding of HIV env to sCD4, sCD4 was immobilized using amine coupling onto CM5 sensor chip to attain 4000 response units. To perform the kinetic study of the binding of HIV env to the monoclonal antibody 17b, antibodies were immobilized using amine coupling onto a CM5 sensor chip to attain 2000 response units. Using PBS buffer (pH 7.4) with 0.05% Tween 20 and 3% DMSO, association was assessed by passing gp120SF162 (GenBank P03378; Sanchez-Pescador et al. (1985) Science, 227(4686): 484-492), with and without various controls or small molecules, over the chip surface at a flow rate of 25 μl/min. The concentration of gp120SMF162 used was 1 uM for all samples. As a negative control, a control surface coupled to 2000 response units of BSA (Pierce) was used. A buffer only control was subtracted from all sensograms. Responses were measured by assessing the maximum RUs (response units) obtained at the peak of the binding curve.
The percentage upregulation of 17b was determined by dividing the peak RU observed for the Env polypeptide/compound complex divided by the peak RU for the Env polypeptide alone.
as §1

Assay [3] deals with T2, gp120 (48D epitope) (Human immunodeficiency virus type 1 group M subtype B, UniProt P19550).
T2 construct: The concentration of gp120SMF162 used was 1 uM for all samples
Description: SPR (Biacore) upregulation of monoclonal antibody 48D binding to Env/compound complex. The following applies: Example 6 screening; FIG. 6C. As to the method: as §3
Additional candidate small molecules were screened for CD4 binding inhibition and upregulation of CD4 inducible epitopes, e.g., mABs 17b and 48D, by HPLC and BlAcore methods as described in Examples 1 and 4 above. […]

Assay [4] concerns the target T1, gp120SF162. Nature of the assay: SPR (Biacore) competition: gp120 binding to immobilized sCD4 with and without small molecule. Conditions: FIG. 1, compared to when the small molecule was not present. On the procedure: as §2
as §3, with “The concentration of gp120SMF162 used was 1 uM for all samples. As a negative control, a control surface coupled to 2000 response units of BSA (Pierce) was used. A buffer only control was subtracted from all sensograms.” left out

Molecules are shown by their SMILES. “Also recorded” adds a separate entry of the source.

Here are results for four molecules from patent US8197819B2, “Env polypeptide complexes and methods of use” (priority 2004, dated 2012).

In the case of `COc1ccc2[nH]cc(C(=O)CN3CCN(Cc4ccccc4)CC3)c2c1` [Compound 2, 2-(4-benzylpiperazin-1-yl)-1-(5-methoxy-1H-indol-3-yl)ethanone], in assay [1], the “inhibition of (competition with) CD4 binding to gp120” value (“inhibition … to gp120” for short) is “non-inhibition of CD4 binding to gp120”. Moreover, the “upregulation of 17b (CD4 inducible epitope on gp120)” value in assay [2] (Example 6 screening, binding to monoclonal antibody 17b) is reported as “upregulation of CD4 inducible epitopes on gp120”. The “upregulation of CD4 inducible epitopes on gp120, binding to monoclonal antibody 48D” value in assay [3] is given as “upregulation of CD4 inducible epitopes on gp120”.

Turning to `CCOC(=O)C1CCN(C(=O)c2cc3c(C)cc(C)cc3[nH]2)CC1` [Compound 5, ethyl 1-[(4,6-dimethyl-1H-indol-2-yl)carbonyl]piperidine-4-carboxylate], in assay [4], the “inhibition of CD4 binding to Env (Env binding to the CD4 chip)” value is recorded as “inhibition of CD4 binding to Env; also recorded: inhibited binding of Env to the CD4 chip”. In addition, the “binding of Env/small molecule complex to monoclonal antibody 17b” value in assay [2] (SPR, FIG. 2, in comparison to Env-sCD4 complexes) was “exhibited enhanced binding to monoclonal antibody 17b”.

Take `COc1cc(C(=O)N2CCC(c3c[nH]c4ccccc34)CC2)cc(OC)c1OC` [Compound 12, [4-(1H-indol-3-yl)-piperidin-1-yl]-(3,4,5-trimethoxy-phenyl)-methanone]: the “inhibition … to gp120” value in assay [1] was “inhibition of CD4 binding to gp120”. Besides, the “upregulation of CD4 inducible epitopes on gp120” value in assay [2] (Example 6 screening) is “absence of upregulation of CD4 inducible epititopes on gp120”.

For `COc1ccccc1N1CCN(CC(=O)c2c(C)[nH]c3ccccc23)CC1` [Compound 26, 2-[4-(2-Methoxy-phenyl)-piperazin-1-yl]-1-(2-methyl-1H-indol-3-yl)-ethanone], the “inhibition … to gp120” value in assay [1] was “inhibition of CD4 binding to gp120”. Further, the “upregulation of CD4 inducible epitopes on gp120” value in assay [2] (Example 6 screening) is reported as “upregulation of CD4 inducible epititopes on gp120”.
